# Patent US20140357841A1, “Method for stabilizing polypeptide into alpha helix” (Peking University Shenzhen Graduate School, priority 2013, published 2014)
# Marks after values point to notes of the source that are not given here.
# Assay: CD comparison in PBS and 50% trifluoroethanol (TFE) solution
# Type: physicochemical
# Details: CD in PBS versus 50% TFE solution
# Description: FIG. 2 is a CD diagram of the Ac-cyclo(1,5)-monoS5AAAC-NH2 sulfoxide B in the PBS and a 50% trifluoroethanol (TFE) solution according to the Example 1 of the present invention.
row,effect of TFE buffer solution on the alpha helix,Substance
1,no improvements,"Ac-cyclo(1,5)-monoS5AAAC-NH2 sulfoxide B [ASOB]"

# Assay: circular dichroism (CD) detection of alpha helix content in PBS
# Type: physicochemical
# Design: [θ]215 / [θ]207 / [θ]190: unit not given here
# Details: CD, PBS pH = 7.4, 22° C., 10 mM
# Method: The obtained compound 4 is dissolved into of PBS (PH=7.4, 10 mM) for obtaining a CD diagram.
# fH=([θ]obs215-[θ]C)/([θ]∞215-[θ]C);
# wherein T=22° C.; κ=4.0; Np=6 (for pentapeptide); ι=0.1 (cm); C is a molarity M of the samples of the two isomers.
Substance,[θ]190,[θ]207,[θ]215,[θ]215/[θ]207
"Ac-cyclo(1,5)-monoS5AAAC-NH2 sulfoxide A [ASOA]",−14594,−4667,672,−0.14
"Ac-cyclo(1,5)-monoS5AAAC-NH2 sulfoxide B [ASOB]",25987,−16054,−15666,0.98

# Now from value to substance:
[θ]190,[θ]207,[θ]215,[θ]215/[θ]207,Substance
39352,−13684,−13537,0.99,"Ac-(cyclo2,6)-R[KAAAD]-NH2 [control, reference compound]"
9121,−7777,−7920,1.02,"Ac-cyclo(1,5)-monoS5AGAC-NH2 sulfoxide B [GSOB]"
26306,−15556,−13558,0.87,"Ac-cyclo(1,5)-monoS5AIAC-NH2 sulfoxide B [ISOB]"

# Same assay, conditions: PBS 10 mM
row,Substance,alpha helix stabilization / content by CD (in words)
1,"Ac-cyclo(1,5)-monoS5AAAC-NH2 sulfoxide B [ASOB]",has stable alpha helixes
2,"Ac-cyclo(1,5)-monoS5AGAC-NH2 sulfoxide B [GSOB]",identically high contents of the alpha helixes
3,"Ac-cyclo(1,5)-monoS5AIAC-NH2 sulfoxide B [ISOB]",identically high contents of the alpha helixes
4,"Ac-cyclo(1,5)-monoS6AAAC-NH2 sulfoxide B",has effects of stabilizing alpha helix

# Same assay, conditions: [θ]215(x)/[θ]215(ASOB), ASOB is the standard; PBS pH = 7.4, 22° C., 10 mM
row,Substance,relative content of alpha helix
1,"Ac-cyclo(1,5)-monoS5AAAC-NH2 sulfoxide A [ASOA]",−0.04
2,"Ac-cyclo(1,5)-monoS5AAAC-NH2 sulfoxide B [ASOB]",1.00

# Next, values leading:
row,relative content of alpha helix,Substance
1,0.86**,"Ac-(cyclo2,6)-R[KAAAD]-NH2 [control, reference compound]"
2,0.51,"Ac-cyclo(1,5)-monoS5AGAC-NH2 sulfoxide B [GSOB]"
3,0.87,"Ac-cyclo(1,5)-monoS5AIAC-NH2 sulfoxide B [ISOB]"

# Same assay, conditions: versus control of Table 3, identical intermediate sequences
row,improvement of the effects of stabilizing the alpha helix compared to conventional amido bond stabilization [%],Substance
1,14,"Ac-cyclo(1,5)-monoS5AAAC-NH2 sulfoxide A [ASOA]"
